Calls of active or inactive are those of the source. The rule behind the calls is not given here.
Key:
NCI-H460 [1] = assay: Induction of apoptosis in human NCI-H460 cells assessed as early apoptotic cells at 4 uM incubated for 48 hrs by Annexin V-PE/7-AAD staining based flow cytometric analysis (reference value: 3.58 %); format: functional
NCI-H460 [2] = assay: Induction of apoptosis in human NCI-H460 cells assessed as early apoptotic cells at 2 uM incubated for 48 hrs by Annexin V-PE/7-AAD staining based flow cytometric analysis (reference value: 3.58 %); format: functional
[3] = MRT (0 to infinity) in male Sprague-Dawley rat at 5 mg/kg, iv measured up to 24 hrs by LC-MS/MS analysis; format: ADME, organism-based; details: in vivo
NCI-H460 [4] = assay: Antitumor activity against human NCI-H460 cells xenografted in female BALB/c nude mouse assessed as decrease in Ki67-positive cells at 50 mg/kg, ip administered for 21 consecutive days by immunohistochemical analysis; format: functional, organism-based; details: time 21.0 day
[5] = Toxicity in mouse assessed as histological change in liver at 400 mg/kg, ip measured for 21 days by H and E staining based analysis; format: organism-based; details: in vivo, 504 h, time 21 day
NCI-H460 [6] = assay: Induction of apoptosis in human NCI-H460 cells assessed as late apoptotic cells at 4 uM incubated for 48 hrs by Annexin V-PE/7-AAD staining based flow cytometric analysis (reference value: 3.76 %); format: functional
[7] = Toxicity in mouse assessed as histological change in heart at 400 mg/kg, ip measured for 21 days by H and E staining based analysis; format: organism-based; details: in vivo, 504 h, time 21 day
NCI-H460 [8] = assay: Induction of autophagy in human NCI-H460 cells assessed as increase in acidic vesicles incubated for 48 hrs by MDC staining and LC3B immunofluorescence analysis; format: functional, cell-based; details: dose 2-8 µM
NCI-H1299 = assay: cells; details: Homo sapiens, NCI-H1299, 48 h
Description: Antitumor activity against human NCI-H1299 cells assessed as inhibition of cell viability incubated for 48 hrs by MTT assay

NCI-H460 [9] = assay: Induction of cell cycle arrest in human NCI-H460 cells assessed as accumulation of cells at G2 phase at 8 uM incubated for 48 hrs by PI staining based flow cytometric analysis (reference value: 11.0 %); format: functional
NCI-H460 [10] = assay: Cytotoxicity against human NCI-H460 cells measured up to 8 days; format: functional, cell-based; details: dose 2-8 µM, time <= 8.0 day
NCI-H460 [11] = assay: Induction of autophagy in human NCI-H460 cells assessed as decrease in P62 expression at 2 to 8 uM incubated for 48 hrs by Western blotting analysis; format: functional, cell-based; details: dose 2-8 µM
[12] = Apparent volume of distribution in male Sprague-Dawley rat at 5 mg/kg, iv measured up to 24 hrs by LC-MS/MS analysis; format: ADME, organism-based; details: in vivo, read-out: Vz
NCI-H460 [13] = assay: Antitumor activity against human NCI-H460 cells xenografted in female BALB/c nude mouse assessed as tumor growth inhibition at 50 mg/kg, ip administered for 21 consecutive days relative to control; format: functional; details: NCI-H460, 504 h, time 21 day, read-out: TGI
MCF-10A = assay: Cytotoxicity against human MCF-10A cells assessed as cell viability at 5 to 10 uM incubated for 48 hrs by MTT assay; format: toxicity, cell-based; details: dose 5-10 µM
[14] = C0 in male Sprague-Dawley rat at 5 mg/kg, iv measured up to 24 hrs by LC-MS/MS analysis; format: ADME, organism-based; details: in vivo
[15] = Toxicity in mouse assessed as histological change in kidney at 400 mg/kg, ip measured for 21 days by H and E staining based analysis; format: organism-based; details: in vivo, 504 h, time 21 day
NCI-H460 [16] = assay: Induction of cell cycle arrest in human NCI-H460 cells assessed as accumulation of cells at G1 phase at 4 uM incubated for 48 hrs by PI staining based flow cytometric analysis (reference value: 56.7 %); format: functional
NCI-H460 [17] = assay: Induction of apoptosis in human NCI-H460 cells assessed as necrotic cells at 4 uM incubated for 48 hrs by Annexin V-PE/7-AAD staining based flow cytometric analysis (reference value: 0.79 %); format: functional
NCI-H460 [18] = assay: Induction of apoptosis in human NCI-H460 cells assessed as early apoptotic cells at 8 uM incubated for 48 hrs by Annexin V-PE/7-AAD staining based flow cytometric analysis (reference value: 3.58 %); format: functional
NCI-H460 [19] = assay: Induction of apoptosis in human NCI-H460 cells assessed as necrotic cells at 8 uM incubated for 48 hrs by Annexin V-PE/7-AAD staining based flow cytometric analysis (reference value: 0.79 %); format: functional
[20] = Toxicity in mouse assessed as animal mortality at 100 to 400 mg/kg, ip measured for 21 days; format: organism-based; details: in vivo, 504 h, dose 100-400 mg/kg, time 21 day
NCI-H460 [21] = assay: Induction of autophagy in human NCI-H460 cells assessed as increase in vacuole formation incubated for 12 hrs by microscopic analysis; format: functional, cell-based
[22] = Toxicity in mouse assessed as body weight change at 100 to 400 mg/kg, ip measured for 21 days; format: organism-based; details: in vivo, 504 h, dose 100-400 mg/kg, time 21 day
NCI-H460 [23] = assay: Induction of apoptosis in human NCI-H460 cells assessed as late apoptotic cells at 2 uM incubated for 48 hrs by Annexin V-PE/7-AAD staining based flow cytometric analysis (reference value: 3.76 %); format: functional
NCI-H460 [24] = assay: Induction of autophagy in human NCI-H460 cells assessed as upregulation of beclin 1 level; format: functional, cell-based
[25] = target: Cyclin-dependent kinase 4 (Homo sapiens, UniProt P11802); assay: Binding affinity to CDK4 in human NCI-H460 cells assessed as increase in thermal stabilization at 38 to 62 degreeC at 1 uM pretreated for 6 hrs followed by heat exposure for 3 mins and subsequently incubated at room temperature for 3 mins by CETSA; format: cell-based; details: time 366.0 min
Sequence of Cyclin-dependent kinase 4 (P11802 whole entry): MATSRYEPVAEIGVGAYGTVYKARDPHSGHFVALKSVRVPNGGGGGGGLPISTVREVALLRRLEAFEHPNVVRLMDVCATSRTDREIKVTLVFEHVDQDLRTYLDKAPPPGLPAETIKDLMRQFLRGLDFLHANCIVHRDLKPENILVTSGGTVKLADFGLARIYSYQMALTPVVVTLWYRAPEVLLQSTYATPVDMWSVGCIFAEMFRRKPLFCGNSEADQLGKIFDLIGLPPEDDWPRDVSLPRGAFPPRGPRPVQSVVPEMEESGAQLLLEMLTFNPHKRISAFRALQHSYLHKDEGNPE

NCI-H460 [26] = assay: Induction of autophagy in human NCI-H460 cells assessed as production of autophagic lysosomes at 4 uM incubated for 24 hrs by transmission electron microscopic analysis; format: functional, cell-based
NCI-H460 [27] = assay: Induction of cell cycle arrest in human NCI-H460 cells assessed as accumulation of cells at S phase at 2 uM incubated for 48 hrs by PI staining based flow cytometric analysis (reference value: 33.3 %); format: functional
[28] = Half life in male Sprague-Dawley rat at 5 mg/kg, iv measured up to 24 hrs by LC-MS/MS analysis; format: ADME, organism-based; details: in vivo
NCI-H460 [29] = assay: Induction of cell cycle arrest in human NCI-H460 cells assessed as accumulation of cells at G1 phase at 8 uM incubated for 48 hrs by PI staining based flow cytometric analysis (reference value: 56.7 %); format: functional
NCI-H460 [30] = assay: Induction of autophagy in human NCI-H460 cells assessed as increase in autophagosomes incubated for 48 hrs by MDC staining and LC3B immunofluorescence analysis; format: functional, cell-based; details: dose 2-8 µM
NCI-H460 [31] = assay: cells; details: Homo sapiens, NCI-H460, 48 h
Description: Antitumor activity against human NCI-H460 cells assessed as inhibition of cell viability incubated for 48 hrs by MTT assay

NCI-H460 [32] = assay: Induction of autophagy in human NCI-H460 cells assessed as increase in LC3-II expression incubated for 48 hrs by Western blotting analysis; format: functional, cell-based; details: dose 2-8 µM
NCI-H460 [33] = assay: Induction of autophagy in human NCI-H460 cells assessed as suspension of dead cells incubated for 12 hrs by microscopic analysis; format: functional, cell-based
NCI-H460 [34] = assay: Antitumor activity against human NCI-H460 cells xenografted in female BALB/c nude mouse assessed as reduction in c-Myc expression at 50 mg/kg, ip administered for 21 consecutive days by immunohistochemical analysis; format: functional, organism-based; details: time 21.0 day

COc1cc(-c2nc3ccc(F)cc3c(=O)[nH]2)cc(OC)c1OCC(=O)N1CCN(c2ccc(Nc3ncc4cc(C(=O)N(C)C)n(C5CCCC5)c4n3)nc2)CC1
Activity (NCI-H460 [1]): 8.81% | Activity (NCI-H460 [2]): 9.06% | MRT inf [3]: 3.04 h | Activity (NCI-H460 [4]): Active | Activity [5]: Non-toxic | Activity (NCI-H460 [6]): 6.56% | Activity [7]: Non-toxic | Activity (NCI-H460 [8]): Dose-dependent-effect | IC50 (NCI-H1299): 4.01 µM | Activity (NCI-H460 [9]): 3.41% | Activity (NCI-H460 [10]): Time-dependent-effect | Activity (NCI-H460 [11]): Active | Vd [12]: 14.1 L/kg | inhibition in vivo at 50 mg/kg (NCI-H460 [13]): 85.3% | Activity (MCF-10A): Non-toxic | C0 at 24 h [14]: 6000 ng/mL | Activity [15]: Non-toxic | Activity (NCI-H460 [16]): 71.1% | Activity (NCI-H460 [17]): 1.06% | Activity (NCI-H460 [18]): 16.9% | Activity (NCI-H460 [19]): 1.17% | Activity [20]: Non-toxic | Activity (NCI-H460 [21]): Active | Activity [22]: Non-toxic | Activity (NCI-H460 [23]): 4.55% | Activity (NCI-H460 [24]): Active | Activity [25]: Active | Activity (NCI-H460 [26]): Active | Activity (NCI-H460 [27]): 27% | half-life [28]: 7.42 h | Activity (NCI-H460 [29]): 80.8% | Activity (NCI-H460 [30]): Dose-dependent-effect | IC50 (NCI-H460 [31]): 2.21 µM | Activity (NCI-H460 [32]): Dose-dependent-effect | Activity (NCI-H460 [33]): Active; Minor Suspension Was Observed | Activity (NCI-H460 [34]): Active
